# Results as given in ChEMBL document CHEMBL1201862, “PubChem BioAssay data set” (2004).
#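 In this assay, cells in 96-well plates receive the compound at five concentrations for 48 hours. Endpoints are linearly interpolated between the surrounding concentrations. The concentration for 50% growth inhibition is given as GI50.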 Active and inactive are the calls of the source. Cut-off read from the data, not from the text of the source: active = GI50 up to about 1.1 µM and inactive = higher.
# Key:
# Assay in all cases: inhibition of tumour cell growth, NCI panel, 48 h
# [1] = tested on: NCI-H226
# [2] = tested on: Hs-578T
# [3] = tested on: NCI-H460
# [4] = tested on: UACC-257
# [5] = tested on: UO-31
# [6] = tested on: UACC-62
# [7] = tested on: OVCAR-4
# [8] = tested on: MOLT-4
# [9] = tested on: MDA-N
# [10] = tested on: EKVX
# [11] = tested on: SK-MEL-2
# [12] = tested on: Malme-3M
# [13] = tested on: RPMI-8226
# [14] = tested on: SF-539
# [15] = tested on: OVCAR-5
# [16] = tested on: HCT-15
# [17] = tested on: SF-268
# [18] = tested on: COLO 205
# [19] = tested on: NCI-H522
# [20] = tested on: HCC 2998
Compound,GI50 [1],GI50 [2],GI50 [3],GI50 [4],GI50 [5],GI50 [6],GI50 [7],GI50 [8],GI50 [9],GI50 [10],GI50 [11],GI50 [12],GI50 [13],GI50 [14],GI50 [15],GI50 [16],GI50 [17],GI50 [18],GI50 [19],GI50 [20]
O=C(NCCCCCCCN1CCCCCCC1)C(C1CCCCC1)C1CCCCC1,9.42 µM (inactive),21.7 µM (inactive),9.1 µM (inactive),2.09 µM (inactive),9.53 µM (inactive),4.76 µM (inactive),9.38 µM (inactive),1.19 µM (inactive),7.93 µM (inactive),4.4 µM (inactive),9.08 µM (inactive),3.34 µM (inactive),2.56 µM (inactive),11.2 µM (inactive),11 µM (inactive),4.07 µM,15.8 µM (inactive),2.81 µM (inactive),14 µM (inactive),2.76 µM (inactive)
O=C(O)CC12CC3CC(CC(O)(C3)C1)C2,> 100 µM (inactive),27.5 µM (inactive),> 100 µM (inactive),> 100 µM (inactive),> 100 µM (inactive),> 100 µM (inactive),> 100 µM (inactive),–,> 100 µM (inactive),> 100 µM (inactive),> 100 µM (inactive),34.7 µM (inactive),> 100 µM (inactive),> 100 µM (inactive),> 100 µM (inactive),> 100 µM,31 µM (inactive),> 100 µM (inactive),27.7 µM (inactive),> 100 µM (inactive)
CC(C)(C)C1=CC(=C(c2ccc(-c3c4nc(c(-c5ccc(C(=C6C=C(C(C)(C)C)C(=O)C(C(C)(C)C)=C6)c6cc(C(C)(C)C)c(O)c(C(C)(C)C)c6)cc5)c5ccc([nH]5)c(-c5ccc(C(=C6C=C(C(C)(C)C)C(=O)C(C(C)(C)C)=C6)c6cc(C(C)(C)C)c(O)c(C(C)(C)C)c6)cc5)c5nc(c(-c6ccc(C(=C7C=C(C(C)(C)C)C(=O)C(C(C)(C)C)=C7)c7cc(C(C)(C)C)c(O)c(C(C)(C)C)c7)cc6)c6ccc3[nH]6)C=C5)C=C4)cc2)c2cc(C(C)(C)C)c(O)c(C(C)(C)C)c2)C=C(C(C)(C)C)C1=O,> 100 µM (inactive),> 100 µM (inactive),> 100 µM (inactive),> 100 µM (inactive),> 100 µM (inactive),> 100 µM (inactive),> 100 µM (inactive),> 100 µM (inactive),> 100 µM (inactive),> 100 µM (inactive),> 100 µM (inactive),> 100 µM (inactive),> 100 µM (inactive),> 100 µM (inactive),> 100 µM (inactive),> 100 µM,> 100 µM (inactive),> 100 µM (inactive),> 100 µM (inactive),> 100 µM (inactive)
COc1cc2c(c(OC)c1OC)-c1ccc(SC)c(=O)cc1[C@@H](NC(=O)C(F)(F)F)CC2,0.199 µM (active),< 0.01 µM (active),< 0.01 µM (active),< 0.01 µM (active),< 0.0146 µM (active),< 0.0102 µM (active),10.3 µM (inactive),< 0.01 µM (active),< 0.01 µM (active),13.8 µM (inactive),< 0.01 µM (active),< 0.01 µM (active),< 0.01 µM (active),< 0.01 µM (active),0.259 µM (active),< 0.01 µM,< 0.01 µM (active),< 0.01 µM (active),< 0.01 µM (active),< 0.01 µM (active)
NC(=O)NNCc1c(-c2ccccc2)no[n+]1[O-],> 100 µM (inactive),> 100 µM (inactive),> 100 µM (inactive),> 100 µM (inactive),> 100 µM (inactive),> 100 µM (inactive),> 100 µM (inactive),> 100 µM (inactive),> 100 µM (inactive),> 100 µM (inactive),> 100 µM (inactive),> 100 µM (inactive),> 100 µM (inactive),> 100 µM (inactive),> 100 µM (inactive),> 100 µM,> 100 µM (inactive),> 100 µM (inactive),> 100 µM (inactive),> 100 µM (inactive)
